Tests used:
anti-FVIII titers = test: Tolerance induction and FVIII re-challenge study (FVIII, FVIII plus OPLS, FVIII plus Dexamethasone); format: in vivo, HA mice; conditions: co-administered sc with 1 μg FVIII, 4 weekly
Protocol: Tolerance induction studies in HA mice: Breeding pairs of exon 16 knockout transgenic hemophilic mice (HA) were used. All animal studies were conducted in accordance with an approved protocol by the Institutional Animal Use and Care Committee at the University at Buffalo, State University of New York.
Immunization and re-challenge schedule: To delineate whether OPLS mediated reduction of antibody titer is due to immune tolerance or immune suppression, we performed re-challenge experiments. Forty HA mice were pre-treated with FVIII, FVIII plus OPLS or FVIII plus Dexamethasone once-a-week for four consecutive weeks by sc injections of endotoxin free formulation of 1 μg of FVIII alone or with 5 mg OPLS or 200 ng Dexamethasone (Dex) as shown in FIG. 32. The injections were prepared in TRIS buffers containing 25 mM TRIS and 150 mM NaCl at pH 7.5. For OPLS containing formulations, OPLS was added to the buffer and the pH adjusted to 7.5. The appropriate amount of FVIII was added immediately before injection to prevent complexation between FVIII and OPLS pre-injection. […] Total anti-FVIII titer levels were measured by ELISA.
Statistics: Non-parametric one-way ANOVA with Tukey's post hoc analysis was used for the analysis of titer values where appropriate. Student t-test was used for comparing mean intensity of fluorescence (MIF) for flow cytomerty data. […]

anti-FVIII total titers = test: OPLS-FVIII sequential administration study; format: in vivo, Hemophilia A mice; conditions: 5 mg OPLS then 1 μg FVIII 5 minutes later, same site, 4 weekly sc; 4 weekly iv rechallenge
Protocol: To determine if OPLS can exert its immunomodulatory effects on the immune response to FVIII when the two are administered in separate injections temporally spaced apart, at the same injection site the following experiments were carried out. Hemophilia A mice (n=6 animals/group) were immunized with 4 weekly sc injections as follows. The control group of animals received one injection of sterile TRIS buffer (100 μL volume) then, after a 5 minute wait, they received a second injection of 1 μg FVIII in sterile TRIS (100 μL volume) at the same injection site. The second group of mice received one injection of 5 mg OPLS (100 μL volume) then, after a 5 minute wait, they received a second injection of 1 μg FVIII in sterile TRIS (100 μL volume) at the same injection site. After a two-week rest period (week 6) all of the mice were then rechallenged with 4 weekly intravenous injections of 1 μg of FVIII in 100 μL sterile TRIS […]. Mice were sacrificed after two weeks and a terminal blood sample was collected using cardiac puncture. Analysis was done by ELISA for total titers. […] This administration method was able to induce a hypo-responsiveness towards FVIII.

OVA = target: T1, OVA (Gallus gallus, UniProt P01012); test: Binding of OPLS to OVA by fluorescence spectroscopy
T1 construct: purchased Sigma (St. Louis, Mo.)
Protocol: The binding of OPLS to several therapeutic proteins was evaluated using fluorescence spectroscopy (FIG. 2).

anti-RXT antibody titers = test: Effect of OPLS on rituximab immunogenicity; format: in vivo, SW mice; conditions: OPLS 5 mg vs 0.4 mg with 1 μg RXT s.c., dose dependent
Protocol: Materials and Methods: 30 SW mice between 6 and 8 weeks of age were divided into 3 groups: group one received 1 ug RXT SC in the abdominal region. Group two received 1 ug RXT/0.4 mg OPLS SC in the abdominal region and group 3 received 1 μg RXT/5 mg OPLS sc in the abdominal region. This treatment was given one day 1, 8, 10 and 12. Three days after the last injection the animals were sacrificed. Blood was centrifuged at 7500 rpm for 5 min at 4 degrees Celsius. Plasma was then removed and stored at −80 degrees Celsius until analysis Total titers were determined by classical standard ELISA. Briefly, Nunc-Maxisorb 96-well plates were coated overnight at 4° C. with 50 μl/well of 2.5 μg/ml RXT. Plates were then washed and blocked with 1% bovine serum albumin (blocking buffer). 50 μl/well of various dilutions of the sample were added to the plate and incubated at room temperature for 2 h. Plasma samples from animals exposes to a sham treatment (buffer only) served as controls. The plates were then washed and incubated with 50 μl of goat anti-mouse FC-specific anti-body-HRP conjugate at a 1:50000 dilution in blocking buffer at room temperature for 1 h. Color was developed for 20 min with 100 μl of TMB solution. 100 μl of 2 N H2SO4 was used to stop the reaction. Optical density at […] was measured using a plate reader. Non-responders were given the value of the plate specific factor for uniformity. […]

anti-IgG antibody titers = test: Effect of OPLS on human IgG immunogenicity; format: in vivo, mice; conditions: 0.4 mg OPLS with 1 μg human IgG s.c., days 1, 8, 10, 12
Protocol: Materials and Methods: 8 animals were used for this pilot study, 4 animals were injected with Human-IgG (Sigma) alone (1 μg) or with Human IgG plus OPLS (1 μg human IgG plus 0.4 mg OPLS). The study was done with 4 injections over 2 weeks period as follows: day 1, day 8, day 10 and day 12 followed by a 3 days washout period. ELISA was done to measure total titers. Briefly, Nunc-Maxisorb 96-well plates were coated overnight at 4° C. with 50 μl/well of 2.5 μg/ml Human IgG. Plates were then washed and blocked with 1% bovine serum albumin (blocking buffer). 50 μl/well of various dilutions of the sample were added to the plate and incubated at room temperature for 2 h. Plasma samples from animals exposes to a sham treatment (buffer only) served as controls. The plates were then washed and incubated with 50 μl of goat anti-mouse anti-body-HRP conjugate at a 1:50000 dilution in blocking buffer at room temperature for 1 h. Color was developed for 20 min with 100 μl of TMB solution. 100 μl of 2 N H2SO4 was used to stop the reaction. Optical density at […] was measured using a plate reader. Non-responders were given the value of the plate specific factor for uniformity.
In this pilot study, animals were injected with Human-IgG (Sigma) alone (1 μg) or with OPLS […]. […]

T1 sequence (P01012 whole entry): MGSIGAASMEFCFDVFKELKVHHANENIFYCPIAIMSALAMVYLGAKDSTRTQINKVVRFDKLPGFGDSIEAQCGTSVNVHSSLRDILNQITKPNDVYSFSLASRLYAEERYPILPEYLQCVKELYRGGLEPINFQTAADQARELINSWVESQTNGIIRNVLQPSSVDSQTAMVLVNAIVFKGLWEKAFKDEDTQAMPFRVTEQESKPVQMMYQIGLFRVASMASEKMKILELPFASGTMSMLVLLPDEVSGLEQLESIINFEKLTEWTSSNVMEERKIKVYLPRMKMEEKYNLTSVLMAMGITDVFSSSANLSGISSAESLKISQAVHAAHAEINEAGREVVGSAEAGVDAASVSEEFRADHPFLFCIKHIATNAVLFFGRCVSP

## N[C@@H](COP(=O)(O)O)C(=O)O [OPLS, O-Phospho-L-Serine]
anti-FVIII titers
  Anti-FVIII antibody response during the pre-treatment stage: reduced
anti-FVIII total titers
  Total anti-FVIII titers after rechallenge vs free FVIII: significantly lower
OVA; fluorescence titration, FIG. 2, read-out: Dissociation constant (Kd) of OPLS binding to OVA
  Kd: 2.57 mM
OVA; spectroscopic titration
  Binding affinity of OVA for OPLS: lowest affinity
anti-RXT antibody titers
  Anti-RXT antibody titers vs RXT alone: lower
anti-IgG antibody titers
  Anti-IgG antibody titers vs IgG alone: lower
